{"source": "patent US20030118636A1", "about": "“Delivery of small hydrophilic molecules packaged into lipid vesicles” (priority 2001, published 2003)", "key": {"MscL mutant G22C [1]": {"biological_target": "T1, MscL mutant G22C (Escherichia coli, UniProt P0A742, G22C)", "T1 construct": "expressed in transfected cells", "T1 sequence (P0A742 2-136 G22C)": "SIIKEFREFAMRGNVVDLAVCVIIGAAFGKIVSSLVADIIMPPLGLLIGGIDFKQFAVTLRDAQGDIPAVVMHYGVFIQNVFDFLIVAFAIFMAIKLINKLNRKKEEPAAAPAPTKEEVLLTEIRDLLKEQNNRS", "assay_type": "biochemical, E. coli", "procedure": "FIGS. 10A-10D. […] Pressure in the pipette, relative to atmospheric, is shown in the lower traces of FIGS. 10A and 10B, and recordings of the current through a cell attached patch of a spheroplast are shown in the upper traces of FIGS. 10A and 10B. […] Buffer: 200 mM KCl, 90 mM MgCl2, 110 mM CaCl2, 5 mM HEPES, pH 6.0. FIGS. 10C and 10D show the histograms of the conductivity preferences of FIGS. 10A and 10B, respectively.\nFIGS. 14A-14D. […] 5 μl of G22C spheroplasts were incubated with IMI (2 mM final concentration) or with patch buffer overnight at 4° C. The next day, currents through cell-attached patches held at +20 mV were recorded for unlabeled (FIG. 14A) and labeled (FIG. 14B) proteins and histograms showing the conductance states of each recording are illustrated in FIG. 14C and FIG. 14D, respectively.\nExpression, purification, membrane reconstitution, and patch clamp analysis were performed as described in Example 1 or as described below.\nGiant spheroplasts were prepared as explained before (Blount, P. et al., Methods Enzymol. Vol. 294:458-482, 1999)."}, "MscL mutant G22C [2]": {"biological_target": "T1, MscL mutant G22C", "assay_type": "biochemical, E. coli", "conditions": "for kinetics of calcein release compared to MTSET: 2.5 mM MTSEA, 10 mM MTSES", "procedure": "Samples were prepared, and calcein efflux was monitored as described in examples 1 and 2A.\nThe membrane reconstitution mixture was incubated for 30 min. at room temperature and 40 mg of detergent-absorbing Bio-Beads SM-2 (Bio-Rad, Inc.) was added and incubated at 4° C. for 30 min. Next, 400 mg Bio-Beads were added and incubated overnight at 4° C. All steps were performed under mild agitation. Samples were prepared for calcein efflux assay as described in example 1."}, "[3]": {"conditions": "free compound", "protocol": "The effect of drug formulation on the rate of drug release in vivo was tested in the rat by external counting of radioactivity. The model was based on liposomal formulations that remain at the subcutaneous site of administration with an encapsulated model drug which, when released, was rapidly removed from the subcutaneous site of injection and excreted into the urinary bladder.\nMale Wistar rats were anaesthetized using iso-flurane O2/NO throughout the study. Liposome encapsulated MAG3 in a 0.5 ml volume was injected subcutaneously (in the neck) and accumulation of radioactivity in the urinary bladder was constantly monitored by external counting using a gamma-camera (window: 140 keV, 250 keV width, 1 min. time resolution). At the end of the study (after 40 min.), a 10 times higher dose of free MAG3 was administered subcutaneously or intravenously to measure the urinary excretion rates of those formulations."}, "[4]": {"conditions": "humans; cited from earlier work"}, "MscL mutant G22C [5]": {"biological_target": "T1, MscL mutant G22C", "conditions": "no tension applied (Yoshimura et al.); cited from earlier work"}, "[6]": {"conditions": "rat; cited from earlier work"}, "[7]": {"assay": "Urinary excretion of IOT after subcutaneous injection in conscious rats", "assay_type": "in vivo, rat", "conditions": "free IOT", "procedure": "DOPC/DOPS (90:10, mol/mol) and DOPC/DOPE liposomes (70:30, mol/mol) were tested.\nMale Wistar rats remained conscious throughout the study. To increase the resolution time, the diuretic furosemide (10 mg/kg dose s.c.) was given in the morning, 7 hours before administration of the sample. Urine was collected automatically with a 1 hour resolution. The concentration of IOT in the urine was measured by HPLC."}, "MscL mutant G22C [8]": {"biological_target": "T1, MscL mutant G22C", "assay": "FITC-insulin efflux from liposomes with MscL mutant G22C (filter assay)", "assay_type": "biochemical, E. coli", "conditions": "1 mM MTSET; DOPC:DOPS 9:1 liposomes with MscL mutant G22C", "procedure": "Insulin and fluorescein isothiocyanate (FITC) were obtained from Sigma (St. Louis, Mo., USA). Insulin (23 mg) was reacted with a four-fold molar ratio of FITC in 0.1 N borate buffer, pH 9.0, for 60 min. The pH was lowered to 7.5 with 0.1 N boric acid and the solution was extensively dialyzed, using a dialysis membrane with a molecular weight cut-off of 2,000 Da, for 96 hours against water at 4° C. with frequent water changes. Absorption spectra of the dialyzed sample were used to quantify the protein concentration and the stoichiometry of labeling. Concentrations of FITC and insulin were both 0.1 mM. The labeled insulin was encapsulated by three freeze-thaw cycles, followed by extrusion through a 400 nm polycarbonate membrane. The proteoliposomes containing labeled insulin were separated from free labeled insulin by using sephadex G-50 column chromatography equilibrated with 145 mM NaCl, 300 mM Sucrose, 25 mM Tris.HCl and 1 mM EDTA, pH 8.0.\nSamples were taken at different time points and Triton was added as a control for maximum fluorescence (100%). Samples were filtered over a 450 nm Cellulose Nitrate filter (Schleicher & Schuell BA85). The filtrate of 2 ml was retained and the fluorescence of 200 I11 of each filtrate was monitored in an fl600 plate reader (Bio-Tek). All experiments were performed in triplicate."}, "MscL": {"biological_target": "T2, MscL (Escherichia coli, UniProt P0A742, G22C)", "T2 construct": "made in house; host or cells: E. coli PB104", "T2 sequence (P0A742 2-136 G22C)": "as above", "assay_type": "biochemical, E. coli"}, "[9]": {"conditions": "DOPC:DOPS 90:10 liposomes with MscL mutant G22C"}, "[10]": {"conditions": "1 mM MTSET, DOPC:DOPS 90:10 liposomes with MscL mutant G22C"}}, "note": "Read-outs that look alike come from different tables or passages of the source.", "data": [{"compound": "COC(=O)C(I)Cc1cnc[nH]1", "note": "(stereo not shown) [IMI, methyl 2-iodo-3-(5-imidazolyl)propanoate]", "values": [{"measurement": "ratio of tension sensitivity of MscL over MscS", "setting": "MscL mutant G22C [1]; spheroplasts, pH 6", "value": 1.48}, {"measurement": "channel state in calcein efflux assays", "setting": "MscL mutant G22C [2]; IMI labeled MscL mutant G22C, pH 7.0 and 8.0 (data not shown)", "value": "tendency to stay open at pH 7.0 and 8.0"}]}, {"compound": "mertiatide [MAG3]", "values": [{"measurement": "time to 50% urinary excretion", "setting": "[3]; intravenous", "value": 3, "unit": "min"}, {"measurement": "time to 50% urinary excretion", "setting": "[3]; subcutaneous", "value": "> 12", "unit": "min"}, {"measurement": "active tubular secretion", "setting": "[4]", "value": 600, "unit": "mL/min"}]}, {"compound": "2-aminoethyl methanethiosulfonate [MTSEA]", "values": [{"measurement": "effect of attachment to the cysteine on gating under patch clamp", "setting": "MscL mutant G22C [5]", "value": "gate spontaneously"}, {"measurement": "kinetics of calcein release compared to MTSET", "setting": "MscL mutant G22C [2]; [9]", "value": "significantly slower"}]}, {"compound": "sodium (2-sulfonatoethyl) methane thiosulfonate [MTSES]", "values": [{"measurement": "effect of attachment to the cysteine on gating under patch clamp", "setting": "MscL mutant G22C [5]", "value": "gate spontaneously"}, {"measurement": "kinetics of calcein release compared to MTSET", "setting": "MscL mutant G22C [2]; [9]", "value": "significantly slower"}]}, {"compound": "CNC(=O)c1c(I)c(NC(C)=O)c(I)c(C(=O)O)c1I", "note": "[IOT, Iodo-thalamate]", "values": [{"measurement": "excretion via glomerular filtration", "setting": "[6]", "value": 1, "unit": "ml.min^−1.100 g rat"}, {"measurement": "first phase urinary excretion", "setting": "[7]", "value": "completed in the first couple of hours"}]}, {"compound": "C[N+](C)(C)CCSS(C)(=O)=O", "note": "[MTSET, [2-(Trimethylammonium)ethyl]methanethiosulfonate]", "values": [{"measurement": "effect of attachment on pressure sensitivity and gating", "setting": "MscL mutant G22C [1]; attached to MscL mutant G22C in spheroplasts", "value": "spontaneous gating of the channel"}, {"measurement": "effect of attachment to the cysteine on gating under patch clamp", "setting": "MscL mutant G22C [5]", "value": "gate spontaneously"}, {"measurement": "encapsulated calcein released", "setting": "MscL mutant G22C [2]; [10]", "value": 80, "unit": "%"}, {"measurement": "time for half of the MscL mediated efflux", "setting": "MscL mutant G22C [2]; [10]", "value": "≤ 7", "unit": "s"}, {"measurement": "calcein release upon addition", "setting": "MscL mutant G22C [2]; DOPC:Cholesterol 80:20 liposomes with vs without MscL mutant G22C", "value": "effective release of calcein"}, {"measurement": "FITC-insulin efflux upon activation", "setting": "MscL mutant G22C [8]", "value": "release of FITC-insulin"}]}, {"compound": "Br.BrCc1ccncc1", "note": "[BP, 4-(bromomethyl)pyridine hydrobromide]", "values": [{"measurement": "channel behavior of labeled MscL mutant G22C", "setting": "MscL; pH 5.2, +20 mV", "value": "prefers not to open completely but only to subconducting states and the dwell times get shorter"}, {"measurement": "channel behavior of labeled MscL mutant G22C", "setting": "MscL; pH 7.2, +20 mV", "value": "behaves as an unlabeled channel"}]}]}
